Results on 1 compound are retold here after patent US4062816A, “D-Ala^5 -somatostatin and intermediates thereto” (Eli Lilly and Company, priority 1976, dated 1977).

For one assay, the system named is growth hormone. The experiment in a line: inhibition of the release of growth hormone in pentobarbital-stimulated rats. The assay is classed as in vivo, Spraque-Dawley rats. Particulars: 50 μg./rat, subcutaneously; sodium pentobarbital-stimulated; relative to saline control group. The protocol: The product from Example 4 was tested for its activity in inhibiting the release of growth hormone. The procedure which was employed is carried out using mature male Spraque-Dawley rats (Laboratory Supply Company, Indianapolis, Ind.). The test is a modification of the method of P. Brazeau, W. Vale, and R. Guillemen, Endocrinology, 94 184 (1974). In this assay, three groups of eight rats each were employed. First, sodium pentobarbital was administered to all […] rats to stimulate growth hormone secretion. One of the groups of eight rats is the control group and received only saline. A second of the groups received somatostatin at 50 μg./rat, subcutaneously. The third group received D-Ala^5 -somatostatin at 50 μg./rat, subcutaneously. The degree of inhibition of serum growth hormone concentration then was determined with respect to the control group, and the relative activities of D-Ala^5 -somatostatin and somatostatin itself were compared. At a dose level of 50 μg./rat, D-Ala^5 -somatostatin inhibited the increase in serum growth hormone concentration by 40-50 percent, while somatostatin itself produced a 90 percent inhibition.

The next assay has as its system insulin. The experiment in a line: inhibition of insulin secretion in dogs during L-alanine infusion. In kind it is in vivo, mongrel dogs. The note with it: intravenous infusion 0.20-0.30 μg/kg/minute (D-Ala5-somatostatin 0.230 μg/kg/min.); fasted dogs. On the procedure: (§1) The product from Example 4 also was tested for its activity in inhibiting glucagon and insulin secretion. Normal mongrel dogs of either sex were fasted overnight. Control blood samples were obtained, and then an intravenous infusion of saline, somatostatin, or D-Ala^5 -somatostatinwas started. After 30 minutes, L-alanine additionally was administered intravenously for a period of 15 minutes. The infusion of saline, somatostatin, of D-Ala^5 -somatostatin was continued for 15 minutes after completion of the alanine infusion. The total dose of somatostatin or D-Ala^5 -somatostatin which was infused is 200-500 μg/dog (0.20-0.30 μg/kg/ minute), and the total dose of L-alanine infused was 1 mmol.kg./15 minutes.

Another assay concerns glucagon. The experiment in a line: inhibition of glucagon secretion in dogs during L-alanine infusion. In kind it is in vivo, mongrel dogs. The note with it: intravenous infusion 0.20-0.30 μg/kg/minute (D-Ala5-somatostatin 0.230 μg/kg/min.); fasted dogs. On the procedure:
as §1

For `C[C@H](N)C(=O)NCC(=O)N[C@H]1CSSC[C@@H](C(=O)O)NC(=O)[C@H](CO)NC(=O)[C@H]([C@@H](C)O)NC(=O)[C@H](Cc2ccccc2)NC(=O)[C@H]([C@@H](C)O)NC(=O)[C@H](CCCCN)NC(=O)[C@H](Cc2c[nH]c3ccccc23)NC(=O)[C@H](Cc2ccccc2)NC(=O)[C@H](Cc2ccccc2)NC(=O)[C@@H](C)NC(=O)[C@H](CCCCN)NC1=O` [D-Ala^5 -somatostatin], in the assay with growth hormone, the “inhibition of the increase in serum growth hormone concentration” value is recorded as 40-50%. For the same compound, in the assay on insulin, the “effect on basal serum insulin concentration (before alanine infusion)” value was “caused a brief increase in insulin concentration” and the “effect on the increase in insulin concentration/secretion produced by L-alanine” value is “did not inhibit the increase in insulin secretion”. Also, the “effect on the increase in serum glucagon concentration produced by L-alanine” value in the assay with glucagon is on record as “did not affect the increase in serum glucagon concentration”.
